Columns and labels:
[1] = tested on: S232 PDH E1 alpha protein (PDHA1) phosphorylation in PSN-1 cells; assay: Cellular PDH phosphorylation (ELISA); assay type: cell-based, human; details: 24 h, IC50 concentrations
Method: As a first step, the ability of representative derivatives to target PDK in intact cancer cells was assessed by evaluating their effect on PDH phosphorylation of PSN-1 cancer cells.
PSN-1 cells (2 × 10^5) were seeded in a six-well plate in growth medium (4 mL). After 24 h, cells were incubated for 24 h with IC50 concentrations of tested compounds. Subsequently, the phosphorylation level of S232 PDH E1 alpha protein (PDHA1) was assessed by ELISA Kit (Abcam) following the manufacturer’s instructions. The amount of phosphorylated S232 PDHA1 protein was detected by measuring the absorbance of each well at 600 nm, using a Bio-Rad 680 microplate reader.

PSN-1 cells [2] = assay: Cellular oxygen consumption (Mito-ID Extracellular O2 Sensor Kit); assay type: cell-based, human; details: IC50 concentrations
Method: (§1) Cells were treated with DAP or representative compounds at IC50 concentrations and the changes in OCR and in the intracellular lactate formation were monitored.
PSN-1 cells (2 × 10^5) were seeded in a six-well plate in growth medium (4 mL). After 24 h, cells were incubated for 60 min with IC50 concentrations of tested compounds. Subsequently, oxygen consumption was assessed by Mito-ID® Extracellular O2 Sensor Kit according to manufacturer’s instructions. Fluorescence was measured using a Tecan microplate reader (Ex 340–400 nm, Em 630–680 nm).

PSN-1 cells [3] = assay: Cellular lactate production; assay type: cell-based, human; details: IC50 concentrations
Method: as §1
PSN-1 cells (2 × 10^5) were seeded in a six-well plate in a growth medium (4 mL). After 24 h, cells were incubated for 60 min with IC50 concentrations of tested compounds. Changes in lactate production were assessed via colorimetric microplate assay (Lactate assay kit®, Merk, St. Louis, MO, USA) according to the manufacturer’s instructions. The intracellular lactate concentration was detected by measuring the absorbance of each well at 570 nm, using a Bio-Rad 680 microplate reader.

PSN-1 cells [4] = assay: Mitochondrial membrane potential (Mito-ID kit); assay type: cell-based, human; details: IC50 concentrations
Method: The ΔΨ was assayed using the Mito-ID® Membrane Potential Kit according to the manufacturer’s instructions (Enzo Life Sciences, Farmingdale, NY, USA) as previously described. Briefly, PSN-1 cells (8 × 10^3 per well) were seeded in 96-well plates; after 24 h, cells were washed with PBS and loaded with Mito-ID Detection Reagent for 30 min at 37 °C in the dark. Afterward, cells were incubated with tested compounds for 60 min. CCCP (Carbonyl cyanide 3-chlorophenyl-hydrazone) was used as the positive control. Fluorescence intensity was estimated using a VICTOR X3 (PerkinElmer, Waltham, MA, USA) plate reader at 490 (excitation) and 590 nm (emission).

PSN-1 cells [5] = assay: TEM analysis of mitochondria; assay type: cell-based, human; details: 24 h, IC50 concentrations
Method: In addition, TEM analyses were performed on PSN-1 cancer cells after 24 h treatment with IC50 concentrations of the representative compounds 5i and 6h.
About 10^6 PSN-1 cancer cells were seeded in 24-well plates and, after 24 h incubation, were treated with IC50 concentrations of tested compounds and incubated for an additional 24 h. Cells were then washed with cold PBS, harvested, and directly fixed with 1.5% glutaraldehyde buffer with 0.2 M sodium cacodylate, pH 7.4. After washing with buffer and postfixation with 1% OsO4 in 0.2 M cacodylate buffer, specimens were dehydrated and embedded in epoxy resin (Epon Araldite). Sagittal serial sections (1 μm) were counterstained with toluidine blue; thin sections (90 nm) were given contrast by staining with uranyl acetate and lead citrate. Micrographs were taken with a Hitachi H-600 electron microscope (Hitachi, Tokyo, Japan) operating at 75 kV. All photos were typeset in Corel Draw 11.

[6] = tested on: caspase-3 and -8 in PSN-1 cells; assay: Caspase-3 and -8 activity; assay type: cell-based, human; details: 24 h, IC50 doses
Method: Apoptotic cell death can be triggered by a mitochondria-mediated or mitochondrial-independent pathways. In the […], caspase-8 and caspase-3 play an essential role. […] Staurosporine (STS), an alkaloid inducing apoptosis through caspase-3 and -8 activation was used as a positive control. […] Caspase-3 and -8 cleavage reached values similar to that induced by the well-known caspase-dependent apoptosis inducer staurosporine (Figure 10C).
Protein aliquots (100 μg) were stained at 37 °C for 60 min with fluorescent caspase-3 (N-acetyl-Asp-Glu-Val-Asp-AMC, AMC = 7-amino-4-methylcoumarin) or caspase-8 (Ac-Val-Glu-Thr-Asp-AMC) substrates. Substrate hydrolysis was measured after 60 min by monitoring the release of AMC using a a Tecan microplate reader (excitation at 370 nm, emission at 460 nm).

PSN-1 cells [7] = assay: Cell death induction, Hoechst 33258 staining; assay type: cell-based, human; details: 48 h, IC50 doses
Method: As a last mechanistic evaluation, the ability of selected compounds 5i and 6h to induce cancer cell death by means of apoptosis, was also assessed.
PSN-1 cells were seeded into 8-well tissue-culture slides (BD Falcon, Bedford, MA, USA) at 5 × 10^4 cells/well (0.8 cm^2). […] Samples were examined at 5× and 40× magnification in a Zeiss LSM 800 confocal microscope using the Zeiss ZEN 2.3 software system (Zeiss, Oberkochen, Germany).

[8] = Body weight changes of LLC-bearing mice; assay type: in vivo; details: LLC-bearing C57BL mice, 5i 20 mg kg−1 daily i.p.
[9] = tested on: S232 PDH E1 alpha protein (PDHA1) phosphorylation in LLC tissue; assay: PDH phosphorylation in mice tumor tissues (ELISA); assay type: in vivo, C57BL mice; details: LLC-bearing mice, 5i 20 mg kg−1 daily i.p., tumors collected day 15
Method: As a proof-of-concept of PDK inhibitory activity of the newly developed 3-amino 1,2,4-triazines, we also assessed the phosphorylation level of S232-PDHA1 in tumor samples of animals treated with 5i. Tumors of treated animals collected on day 15 were homogenized and phopho-S232-PDHA1 levels were quantified by an ELISA Kit.
The phosphorylation level of S232 PDH E1 alpha protein (PDHA1) in LLC tissue homogenates was assessed by ELISA Kit (Abcam) following the manufacturer’s instructions. The amount of phosphorylated S232 PDHA1 protein was detected by measuring the absorbance of each well at 600 nm, using a Bio-Rad 680 microplate reader.

[10] = tested on: murine Lewis Lung Carcinoma (LLC); assay: In vivo anticancer activity, LLC solid tumor model; details: LLC-bearing C57BL mice, daily dosing days 7-14, evaluated day 15; 5i 20 mg kg−1 i.p., gemcitabine 60 mg kg−1, cisplatin 3 mg kg−1
Excerpt: Seven days after tumor inoculation the tumor-bearing mice were randomized into vehicle control and treatment groups.
The LLC was implanted intramuscularly (i.m.) as a 2 × 10^6 cell inoculum into the right hind leg of 8-week-old male and female C57BL mice (24 ± 3 g body weight). After 7 days from tumor implantation (visible tumors), mice were randomly divided into 4 groups (8 animals per group) and subjected to daily i.p. administration. […] At day 15, animals were sacrificed, the legs were amputated at the proximal end of the femur, and the inhibition of tumor growth was determined from the difference in the weights of the tumor-bearing leg and the healthy leg of the animals, expressed as a percentage referenced to the control animals. Body weight was measured at day 0 and from day 7 onwards every 2 days and was taken as a parameter for systemic toxicity. All presented values are the means ± SD of no less than three measurements.

PSN-1 cells [11] = assay: 3D spheroid cytotoxicity, acid phosphatase (APH) assay, PSN-1; details: read-out: IC50 ±S.D. PSN-1 (3D cytotoxicity); spheroids, 72 h, APH test
Method: The PDAC cancer spheroids were treated with tested compounds for 72 h, and cell viability was assessed by means of the acid phosphatase (APH) assay (Table 3).
An APH-modified assay was used for determining cell viability in 3D spheroids, as previously described [61]. Briefly, the pre-seeded spheroids were treated with fresh medium containing the compound to be studied at the appropriate concentration (range 2.5–200 μM). Triplicate cultures were established for each treatment. After 72 h, each well was treated with 100 μL of the assay buffer (0.1 M sodium acetate, 0.1% Triton-X-100, supplemented with ImmunoPure p-nitrophenyl phosphate; Sigma Chemical Co., Ltd.) and, following 3 h of incubation, 10 μL of 1 M NaOH solution was added. […] The mean absorbance for each drug dose was expressed as a percentage of the control untreated well absorbance (T/C) and plotted vs. drug concentration. […] The evaluation was based on means from at least four independent experiments.

Cn1cc(-c2nnc(N)nc2-c2cn(C)c3ccc(F)cc23)c2ccccc21 [5i]
reduction in phospho-PDHA1 (S232) levels [1]: very similar to that exerted by the reference PDK inhibitor DAP
cellular oxygen consumption (OCR) (PSN-1 cells [2]): more effective than DAP
lactate production (PSN-1 cells [3]): more potent than DAP
percentage of cells with hypopolarized mitochondrial membrane potential (in words) (PSN-1 cells [4]): significantly increased
mitochondrial morphology (TEM) (PSN-1 cells [5]): dramatic swelling of the mitochondria
caspase-3 and -8 activation [6]: significantly activated
apoptosis induction (nuclear morphology) (PSN-1 cells [7]): brightly stained nuclei and morphological features typical of cells undergoing apoptosis
body weight loss (in words) [8]: lower than that induced by cisplatin and gemcitabine
phospho-S232-PDHA1 level in tumor samples [9]: dramatically reduced PDH phosphorylation
reduction in tumor growth compared to the control group [10]: about 80%
IC50 (PSN-1 cells [11]): 4.9 ± 0.8 µM
